In patent publication US11267806B2, “Indazole compound for use in inhibiting kinase activity, composition and application thereof” (Shenzhen TargetRx, Inc., priority 2017, dated 2022):

Legend:
[1] = tested on: HCC-78 (SLC34A2-ROS1) cells; assay: cells; conditions: Homo sapiens, HCC78, 72 h, read-out: HCC-78 IC50
Method: (§1) Assay methods: 1. Preparation of cell plates: Ba/F3, and Ba/F3 Bcr-Abl T315I cells were separately seeded in 96-well plates, and 8 ng/ml IL-3 was added to Ba/F3 cells. The cell plates were placed in a carbon dioxide incubator for culture overnight. 2. […] 3. Treatment of cells with compounds: The compounds were transferred to cell plates at a starting concentration of 10 μM. The cell plates were incubated in a carbon dioxide incubator for 3 days. 4. Detection: CellTiter-Glo reagent was added to the cell plates and incubated for 30 minutes at room temperature to stabilize the luminescence signal. Readings were performed using a PerkinElmer Envision multi-label analyzer.

[2] = tested on: KM12 (TPM3-TRKA) cells; assay: cells; conditions: Homo sapiens, KM12, 72 h, read-out: KM12 IC50
Method: as §1

[3] = tested on: Ba/F3 EML-ALK cells; assay: Cytotoxicity assay (cell viability, CellTiter-Glo), Ba/F3 EML-ALK; format: cell-based; conditions: Mus musculus, BaF3, 72 h, read-out: Ba/F3 EML-ALK IC50
[4] = Liver microsomal metabolism assay, rat; format: in vitro ADME; conditions: SD, pH 7.4, rat liver microsomes 0.5 mg/mL, compound 1 μM, 37° C.; for microsomal CLint at 1 μM: read-out: Rat liver microsome assay CLint; for half-life at 1 μM: read-out: Rat liver microsome assay t1/2
Method: (§2) (3) Liver Microsomal Metabolism Assay
(§3) […]; Coenzyme (NADPH/NADH): 1 mM, Sigma Life Science; Magnesium chloride: 5 mM, 100 mM phosphate buffer (pH 7.4).
(§4) Preparation of stock solutions: Powder of the compounds were accurately weighed and dissolved in DMSO to 5 mM.
(§5) Preparation of phosphate buffer (100 mM, pH7.4): A pre-prepared 0.5M potassium dihydrogen phosphate (150 mL) was mixed with 0.5M dibasic potassium phosphate (700 mL). The pH of the mixture was adjusted to 7.4 with 0.5M dibasic potassium phosphate solution. The mixture was diluted 5-fold with ultrapure water before use, and magnesium chloride was added to obtain a phosphate buffer (100 mM) containing 100 mM potassium phosphate, 3.3 mM magnesium chloride, pH 7.4.
(§6) A NADPH regeneration system solution (containing 6.5 mM NADP, 16.5 mM G-6-P, 3 U/mL G-6-P D, 3.3 mM magnesium chloride) was prepared and placed on wet ice prior to use.
(§7) Incubation of the samples: The stock solutions of the respective compounds were respectively diluted to 0.25 mM with an aqueous solution containing 70% acetonitrile, and used as a working solution, ready for use. 398 μL of the dilution of human liver microsomes or rat liver microsomes were added to 96-well incubation plates (N=2), respectively, and 2 μL of 0.25 mM working solution was added and mixed.
(§8) Metabolic stability assay: 300 μL of pre-chilled stop solution was added to each well of 96-well deep well plates and placed on ice as stop plates. The 96-well incubation plates and NADPH regeneration system were placed in a 37° C. water bath box, shaken at 100 rpm and pre-incubated for 5 min. 80 μL of incubation solution was taken out from each well of the incubation plates and added to the stop plates, mixed, and replenished with 20 μL of NADPH regeneration system solution as a 0-min sample. 80 μL of NADPH regeneration system solution was added to each well of the incubation plates to start the reaction and start counting. […] Separately, 100 μL of the reaction solutions was taken at 10, 30, and 90 min reaction, respectively, added to stop plates, and vortexed for 3 minutes to terminate the reaction. The stop plates were centrifuged at 5000×g at 4° C. for 10 min. 100 μL of the supernatant was added to a 96-well plate to which 100 μL of distilled water was previously added, mixed, and analyzed by LC-MS/MS.
(§9) Data analysis: The peak areas of the corresponding compounds and internal standard were detected by LC-MS/MS system, and the ratio of the peak area of the compounds to the internal standard was calculated.
(§10) The metabolic stability of the compounds in human and rat liver microsomes was evaluated by simultaneously testing and comparing the compounds disclosed herein and the non-deuterated compound. […]

[5] = Pharmacokinetic assay in rats; format: in vivo, SD rat; conditions: male SD rats, i.g., 3 mg/kg; for AUC(0-t) / Cmax / MRT / Tmax: rat, plasma, po
Method: (4) Pharmacokinetic Assay in Rats Assay objective: after administration of test compounds to rats, the pharmacokinetic behavior of the compounds disclosed herein was investigated. Assay Animals: Species and strains: SD rat grade: SPF grade Gender and quantity: male, 6 Weight range: 180 to 220 g (the actual weight range was from 187 to 197 g) Assay Procedure: Before blood samples were collected, 20 μL of 2 M sodium fluoride solution (esterase inhibitor) was previously added to an EDTA-K2 anticoagulant tube, dried in an 80° C. oven, and placed in a 4° C. refrigerator. Rats (male, weighing 187 to 197 g) were randomly divided into 2 groups, and were fasted overnight in the afternoon before the experiment but were allowed to drink water freely. Food was given 4 hours after the administration. […] About 100-200 μL of blood was taken from the orbital vein of rats at 15 min, 30 min, 1, 2, 3, 5, 8 and 10 h after administration, placed in a 0.5 mL Eppendorf tube with EDTA-K2 anticoagulant and mixed immediately. After anticoagulation, the tube was gently inverted 5-6 times as quickly as possible. After the blood was taken, it was placed in an ice box, and then within 30 min, the blood sample was centrifuged for 10 min at 4000 rpm and 4° C. to separate the plasma. Immediately after collection of all plasma, it was stored at −20° C. The concentration of the drug in plasma at each time point was determined after sample collection at all time points. Based on the data of the average concentration of the drug in plasma versus time after administration obtained as described above, pharmacokinetics-related parameters of male SD rats after the i.g. administration of test compounds (3 mg/kg) were calculated using the Winnonin software according to non-compartment statistical moment theory.

[6] = Liver microsomal metabolism assay, human; format: in vitro ADME; conditions: pH 7.4, human liver microsomes 0.5 mg/mL, compound 1 μM, 37° C.; for microsomal CLint at 1 μM: read-out: Human liver microsome assay CLint; for half-life at 1 μM: read-out: Human liver microsome assay t1/2
Method: as §2, §3, §4, §5, §6, §7, §8, §9, §10

[7] = tested on: Ba/F3 EML-ALK^L1196M cells; assay: Cytotoxicity assay (cell viability, CellTiter-Glo), Ba/F3 EML-ALK L1196M; format: cell-based; conditions: Mus musculus, BaF3, 72 h, read-out: Ba/F3 EML-ALK^L1196M IC50

Row | SMILES | IC50 [1] [nM] | IC50 [2] [nM] | IC50 [3] [nM] | microsomal CLint at 1 μM [4] [µL/min/mg] | half-life at 1 μM [4] [h] | Cl_pred [5] [mL/min/kg] | F [5] [%] | AUC(0-t) [5] [ng·h/mL] | Cmax [5] [ng/mL] | MRT [5] [h] | Tmax [5] [h] | microsomal CLint at 1 μM [6] [µL/min/mg] | half-life at 1 μM [6] [h] | IC50 [7] [nM]
1 | [2H]C([2H])([2H])N1CCN(c2ccc(C(=O)Nc3n[nH]c4ccc(Cc5cc(F)cc(F)c5)cc34)c(NC3CCOCC3)c2)CC1 [Compound T-1, N-(5-(3,5-difluorobenzyl)-1H-indazol-3-yl)-4-(4-(methyl-d3)piperazin-1-yl)-2-((tetrahydro-2H-pyran-4-yl)amino)benzamide] | 10 to 50 | 1 to 10 | 50 to 150 | 21.3 | 1.09 | 155 | 7.43 | 1070 | 145 | 5.31 | 3.33 | 34.7 | 0.665 | 
2 | CN1CCN(c2ccc(C(=O)Nc3n[nH]c4ccc(Cc5cc(F)cc(F)c5)cc34)c(NC3CCOCC3)c2)CC1 [Entrectinib, N-(5-(3,5-difluorobenzyl)-1H-indazol-3-yl)-4-(4-methylpiperazin-1-yl)-2-((tetrahydro-2H-pyran-4-yl)amino)benzamide, reference compound] | 10 to 50 | 1 to 10 | 50 to 150 | 32.9 | 0.703 | 114 | 9.23 | 1460 | 236 | 4.24 | 2.17 | 48.1 | 0.48 | > 200
